Patent US20240122912A1, “A NANOFORMULATION FOR GLIOMA TREATMENT AND PROCESS FOR ITS PREPARATION THEREOF” (COUNCIL OF SCIENTIFIC AND INDUSTRIAL RESEARCH, priority 2021, published 2024)

Assays:
[1] = system: CHO, HEK293; experiment: MTT cytotoxicity assay in non-cancer cells; assay type: cell-based; details: same concentration ranges
[2] = system: orthotopic GL261 glioma; experiment: Orthotopic glioma model: survivability and tumor lesions; assay type: in vivo, C57BL/6J mice; details: 5 injections, sacrificed on 12th day; H8 8 mg/Kg
Text: Further, to observe the orthotopic brain tumor growth inhibitory efficiency of presently described SR-targeting CH8, we checked survivability among brain tumor-bearing mice following 5 alternate dosing of various treatment groups. Herein, the intraperitoneal injections started on 4th day until 12th day (total 5 injections) since stereotactic-based inoculation of GL261 cells in brain. […] In another set of experiment, animals bearing brain in situ GL261 cells and having 5 injections of various treatments were sacrificed on 12th day to visualize the status of tumor lesions in full brains obtained from respective treatment groups. […] Clearly, the visual effect of respective treatments has reflected on overall survivability of treated mice.

## O=C(CCCN1CCC(O)(c2ccc(Cl)cc2)CC1)c1ccc(F)cc1 [H8]
[1]
  Cytotoxic effects in non-cancer cells: negligible
[2]
  Tumor sites / lesions in isolated brains: comparable effect on tumor sites
